# Source: PMC9150124, “Design of a Potent, Selective, and Brain-Penetrant Inhibitor of Wnt-Deactivating Enzyme Notum by Optimization of a Crystallographic Fragment Hit” (Journal of Medicinal Chemistry, 2022)
# How the values were obtained:
# Assay in all cases: SelectScreen kinase profiling, SSBK ZLyte SP Technology
# Format in all cases: biochemical
# [1] = biological target: kinase named in conditions (Homo sapiens, UniProt Q9H0K1); settings: SNF1LK2, 10 μM
# Method: (§1) Kinase selectivity screening was performed by Thermo Fisher Scientific (Paisley, U.K.) in their SelectScreen Biochemical Kinase Profiling Service. Assay information and data are presented in the Supporting Information.
# (§2) Kinase selectivity screening was performed by ThermoFisher Scientific (Paisley, U.K.) in their SelectScreenTM
# (§3) Biochemical Kinase Profiling service .
# [2] = biological target: kinase named in conditions (Homo sapiens, UniProt P49674, R178C); settings: CSNK1E (CK1 epsilon) R178C, 10 μM
# Method: as §1, §2, §3
# [3] = biological target: kinase named in conditions (Homo sapiens, UniProt Q9UM73); settings: ALK, 10 μM
# Method: as §1, §2, §3
# [4] = biological target: kinase named in conditions (Homo sapiens, UniProt Q16288); settings: NTRK3 (TRKC), 10 μM
# Method: as §1, §2, §3
# [5] = biological target: kinase named in conditions (Homo sapiens, UniProt Q00537); settings: CDK17/cyclin Y, 10 μM
# Method: as §1, §2, §3
# [6] = biological target: kinase named in conditions (Homo sapiens, UniProt Q6DT37); settings: CDC42 BPG (MRCKG), 10 μM
# Method: as §1, §2, §3
# [7] = biological target: kinase named in conditions (Homo sapiens, UniProt P41279); settings: MAP3K8 (COT), 10 μM
# Method: as §1, §2, §3
# [8] = biological target: kinase named in conditions (Homo sapiens, UniProt Q9H4B4); settings: PLK3, 10 μM
# Method: as §1, §2, §3
# [9] = biological target: kinase named in conditions (Homo sapiens, UniProt P36888, D835Y); settings: FLT3 D835Y, 10 μM
# Method: as §1, §2, §3
# [10] = biological target: kinase named in conditions (Homo sapiens, UniProt Q8N752); settings: CSNK1A1L, 10 μM
# Method: as §1, §2, §3
# [11] = biological target: kinase named in conditions (Homo sapiens, UniProt P05771); settings: PRKCB1 (PKC beta I), 10 μM
# Method: as §1, §2, §3
# [12] = biological target: kinase named in conditions (Homo sapiens, UniProt P21802, N549H); settings: FGFR2 N549H, 10 μM
# Method: as §1, §2, §3
# [13] = biological target: kinase named in conditions (Homo sapiens, UniProt P10721, V560G); settings: KIT V560G, 10 μM
# Method: as §1, §2, §3
# [14] = biological target: kinase named in conditions (Homo sapiens, UniProt P00533, G719S); settings: EGFR (ErbB1) G719S, 10 μM
# Method: as §1, §2, §3
# [15] = biological target: kinase named in conditions (Homo sapiens, UniProt Q9P289); settings: MST4, 10 μM
# Method: as §1, §2, §3
# [16] = biological target: kinase named in conditions (Homo sapiens, UniProt P49759); settings: CLK1, 10 μM
# Method: as §1, §2, §3
# [17] = biological target: kinase named in conditions (Homo sapiens, UniProt P06239); settings: LCK, 10 μM
# Method: as §1, §2, §3
# [18] = biological target: kinase named in conditions (Homo sapiens, UniProt Q14289); settings: PTK2B (FAK2), 10 μM
# Method: as §1, §2, §3
# [19] = biological target: kinase named in conditions (Homo sapiens, UniProt P14616); settings: INSRR (IRR), 10 μM
# Method: as §1, §2, §3
# [20] = biological target: kinase named in conditions (Homo sapiens, UniProt Q96PY6); settings: NEK1, 10 μM
# Method: as §1, §2, §3
# [21] = biological target: kinase named in conditions (Homo sapiens, UniProt Q86V86); settings: PIM3, 10 μM
# Method: as §1, §2, §3
# [22] = biological target: kinase named in conditions (Homo sapiens, UniProt Q9H1R3); settings: MYLK2 (skMLCK), 10 μM
# Method: as §1, §2, §3
# [23] = biological target: kinase named in conditions (Homo sapiens, UniProt P17948); settings: FLT1 (VEGFR1), 10 μM
# Method: as §1, §2, §3
# [24] = biological target: kinase named in conditions (Homo sapiens, UniProt Q13164); settings: MAPK7 (ERK5), 10 μM
# Method: as §1, §2, §3
# [25] = biological target: kinase named in conditions (Homo sapiens, UniProt O75914); settings: PAK3, 10 μM
# Method: as §1, §2, §3
# [26] = biological target: kinase named in conditions (Homo sapiens, UniProt P49841); settings: GSK3B (GSK3 beta), 10 μM
# Method: as §1, §2, §3
# [27] = biological target: kinase named in conditions (Homo sapiens, UniProt P09619); settings: PDGFRB (PDGFR beta), 10 μM
# Method: as §1, §2, §3
# [28] = biological target: kinase named in conditions (Homo sapiens, UniProt P53350); settings: PLK1, 10 μM
# Method: as §1, §2, §3
# [29] = biological target: kinase named in conditions (Homo sapiens, UniProt P00519, T315I); settings: ABL1 T315I, 10 μM
# Method: as §1, §2, §3
# [30] = biological target: kinase named in conditions (Homo sapiens, UniProt Q9UK32); settings: RPS6KA6 (RSK4), 10 μM
# Method: as §1, §2, §3
# [31] = biological target: kinase named in conditions (Homo sapiens, UniProt Q8N4C8); settings: MINK1, 10 μM
# Method: as §1, §2, §3
# [32] = biological target: kinase named in conditions (Homo sapiens, UniProt Q02763); settings: TEK (Tie2), 10 μM
# Method: as §1, §2, §3
# [33] = biological target: kinase named in conditions (Homo sapiens, UniProt P00519, E255K); settings: ABL1 E255K, 10 μM
# Method: as §1, §2, §3
# [34] = biological target: kinase named in conditions (Homo sapiens, UniProt Q8WTQ7); settings: GRK7, 10 μM
# Method: as §1, §2, §3
# Sequence of kinase named in conditions (Homo sapiens, UniProt Q96PY6) (Q96PY6 whole entry): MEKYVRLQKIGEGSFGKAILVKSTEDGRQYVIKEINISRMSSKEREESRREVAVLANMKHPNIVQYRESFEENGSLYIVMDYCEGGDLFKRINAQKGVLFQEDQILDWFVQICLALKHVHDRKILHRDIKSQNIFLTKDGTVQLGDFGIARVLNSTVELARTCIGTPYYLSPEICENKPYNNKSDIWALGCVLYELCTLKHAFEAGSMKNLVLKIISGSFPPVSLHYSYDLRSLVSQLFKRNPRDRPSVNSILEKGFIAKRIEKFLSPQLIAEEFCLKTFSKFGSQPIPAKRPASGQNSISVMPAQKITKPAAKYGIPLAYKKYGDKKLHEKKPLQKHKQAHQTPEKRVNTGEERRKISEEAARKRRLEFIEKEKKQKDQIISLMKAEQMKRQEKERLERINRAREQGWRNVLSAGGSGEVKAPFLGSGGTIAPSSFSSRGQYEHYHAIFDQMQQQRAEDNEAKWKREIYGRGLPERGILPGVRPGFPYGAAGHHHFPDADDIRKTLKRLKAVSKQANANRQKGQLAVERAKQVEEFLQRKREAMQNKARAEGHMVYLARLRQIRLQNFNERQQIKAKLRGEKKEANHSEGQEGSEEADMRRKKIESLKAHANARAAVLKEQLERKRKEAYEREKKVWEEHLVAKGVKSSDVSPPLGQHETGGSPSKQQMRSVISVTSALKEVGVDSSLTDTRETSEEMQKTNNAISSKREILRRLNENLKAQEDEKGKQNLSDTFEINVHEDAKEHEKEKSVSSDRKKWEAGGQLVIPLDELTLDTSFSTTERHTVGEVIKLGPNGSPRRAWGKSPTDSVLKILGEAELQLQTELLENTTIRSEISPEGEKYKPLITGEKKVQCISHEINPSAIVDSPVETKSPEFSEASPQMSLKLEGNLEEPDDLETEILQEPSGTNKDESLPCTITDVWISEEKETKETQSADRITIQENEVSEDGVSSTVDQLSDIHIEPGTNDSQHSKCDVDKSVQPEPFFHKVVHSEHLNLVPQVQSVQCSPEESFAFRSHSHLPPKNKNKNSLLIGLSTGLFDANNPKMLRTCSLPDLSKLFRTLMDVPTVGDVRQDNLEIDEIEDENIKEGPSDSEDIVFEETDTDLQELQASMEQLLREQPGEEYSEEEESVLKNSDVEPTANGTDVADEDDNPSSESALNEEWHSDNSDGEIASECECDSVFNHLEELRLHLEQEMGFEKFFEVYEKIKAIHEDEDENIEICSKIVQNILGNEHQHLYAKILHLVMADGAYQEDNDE
# Sequence of kinase named in conditions (Homo sapiens, UniProt Q13164) (Q13164 whole entry): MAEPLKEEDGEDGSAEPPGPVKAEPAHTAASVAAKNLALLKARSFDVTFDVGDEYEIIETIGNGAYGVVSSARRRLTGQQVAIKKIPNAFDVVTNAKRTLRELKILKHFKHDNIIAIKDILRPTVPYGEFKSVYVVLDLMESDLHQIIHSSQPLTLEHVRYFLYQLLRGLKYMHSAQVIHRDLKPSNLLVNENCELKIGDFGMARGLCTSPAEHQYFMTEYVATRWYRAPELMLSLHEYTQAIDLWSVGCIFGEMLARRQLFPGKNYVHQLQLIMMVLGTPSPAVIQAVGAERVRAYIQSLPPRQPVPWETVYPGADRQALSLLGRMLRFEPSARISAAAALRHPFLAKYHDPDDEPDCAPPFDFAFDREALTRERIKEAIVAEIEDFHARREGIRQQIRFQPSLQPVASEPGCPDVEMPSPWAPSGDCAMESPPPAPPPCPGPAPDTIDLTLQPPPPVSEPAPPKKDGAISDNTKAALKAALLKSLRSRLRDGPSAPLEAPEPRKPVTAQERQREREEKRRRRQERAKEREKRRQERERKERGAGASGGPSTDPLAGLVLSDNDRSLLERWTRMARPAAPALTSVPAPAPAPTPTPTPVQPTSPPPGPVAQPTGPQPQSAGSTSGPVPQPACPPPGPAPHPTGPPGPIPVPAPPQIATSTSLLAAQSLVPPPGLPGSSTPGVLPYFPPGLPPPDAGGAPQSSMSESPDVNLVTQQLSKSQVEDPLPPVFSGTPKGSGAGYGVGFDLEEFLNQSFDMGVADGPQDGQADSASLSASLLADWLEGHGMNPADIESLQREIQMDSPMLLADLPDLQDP
# Sequence of kinase named in conditions (Homo sapiens, UniProt P49841) (P49841 whole entry): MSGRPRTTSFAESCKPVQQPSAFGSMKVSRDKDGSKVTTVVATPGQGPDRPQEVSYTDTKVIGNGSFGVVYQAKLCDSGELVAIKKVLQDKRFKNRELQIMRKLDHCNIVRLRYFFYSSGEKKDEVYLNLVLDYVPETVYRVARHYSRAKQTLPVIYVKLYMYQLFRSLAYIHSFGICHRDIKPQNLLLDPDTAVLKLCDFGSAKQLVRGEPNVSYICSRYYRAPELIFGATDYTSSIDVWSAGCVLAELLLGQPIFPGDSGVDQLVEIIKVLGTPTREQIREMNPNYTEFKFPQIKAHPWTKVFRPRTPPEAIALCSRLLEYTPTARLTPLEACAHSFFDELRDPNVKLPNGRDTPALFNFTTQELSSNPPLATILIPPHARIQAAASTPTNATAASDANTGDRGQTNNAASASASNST
# Sequence of kinase named in conditions (Homo sapiens, UniProt P00533, G719S) (P00533 25-1210 G719S): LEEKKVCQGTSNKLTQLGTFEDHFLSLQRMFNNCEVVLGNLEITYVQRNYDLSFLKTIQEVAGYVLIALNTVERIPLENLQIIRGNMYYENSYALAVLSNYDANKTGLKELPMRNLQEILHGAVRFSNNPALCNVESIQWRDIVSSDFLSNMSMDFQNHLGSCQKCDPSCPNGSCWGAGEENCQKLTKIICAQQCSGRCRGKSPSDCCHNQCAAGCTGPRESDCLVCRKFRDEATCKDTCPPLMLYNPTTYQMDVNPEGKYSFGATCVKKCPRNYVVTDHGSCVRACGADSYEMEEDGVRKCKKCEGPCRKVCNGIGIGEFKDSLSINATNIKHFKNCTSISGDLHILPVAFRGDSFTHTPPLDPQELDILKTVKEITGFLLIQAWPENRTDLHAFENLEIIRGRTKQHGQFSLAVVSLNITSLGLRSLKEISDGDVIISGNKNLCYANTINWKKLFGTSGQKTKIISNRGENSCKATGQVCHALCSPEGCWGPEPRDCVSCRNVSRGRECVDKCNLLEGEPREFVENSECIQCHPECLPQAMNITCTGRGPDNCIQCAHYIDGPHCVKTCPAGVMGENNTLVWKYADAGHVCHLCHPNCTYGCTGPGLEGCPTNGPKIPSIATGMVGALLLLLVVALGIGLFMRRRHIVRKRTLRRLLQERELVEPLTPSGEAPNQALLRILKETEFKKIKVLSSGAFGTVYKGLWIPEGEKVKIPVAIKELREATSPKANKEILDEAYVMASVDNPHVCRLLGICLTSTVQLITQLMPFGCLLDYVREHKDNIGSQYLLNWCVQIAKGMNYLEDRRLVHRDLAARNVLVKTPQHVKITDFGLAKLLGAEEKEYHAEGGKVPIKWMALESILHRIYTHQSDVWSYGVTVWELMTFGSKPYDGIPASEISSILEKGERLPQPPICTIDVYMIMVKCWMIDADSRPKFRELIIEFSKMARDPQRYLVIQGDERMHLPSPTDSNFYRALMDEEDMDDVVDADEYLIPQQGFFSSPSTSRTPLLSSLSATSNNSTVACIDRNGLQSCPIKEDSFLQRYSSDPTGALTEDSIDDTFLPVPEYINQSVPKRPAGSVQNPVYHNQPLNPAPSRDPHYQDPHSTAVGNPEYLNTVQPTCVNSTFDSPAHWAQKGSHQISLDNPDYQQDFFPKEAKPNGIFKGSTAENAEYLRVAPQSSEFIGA
# Sequence of kinase named in conditions (Homo sapiens, UniProt P14616) (P14616 27-1297): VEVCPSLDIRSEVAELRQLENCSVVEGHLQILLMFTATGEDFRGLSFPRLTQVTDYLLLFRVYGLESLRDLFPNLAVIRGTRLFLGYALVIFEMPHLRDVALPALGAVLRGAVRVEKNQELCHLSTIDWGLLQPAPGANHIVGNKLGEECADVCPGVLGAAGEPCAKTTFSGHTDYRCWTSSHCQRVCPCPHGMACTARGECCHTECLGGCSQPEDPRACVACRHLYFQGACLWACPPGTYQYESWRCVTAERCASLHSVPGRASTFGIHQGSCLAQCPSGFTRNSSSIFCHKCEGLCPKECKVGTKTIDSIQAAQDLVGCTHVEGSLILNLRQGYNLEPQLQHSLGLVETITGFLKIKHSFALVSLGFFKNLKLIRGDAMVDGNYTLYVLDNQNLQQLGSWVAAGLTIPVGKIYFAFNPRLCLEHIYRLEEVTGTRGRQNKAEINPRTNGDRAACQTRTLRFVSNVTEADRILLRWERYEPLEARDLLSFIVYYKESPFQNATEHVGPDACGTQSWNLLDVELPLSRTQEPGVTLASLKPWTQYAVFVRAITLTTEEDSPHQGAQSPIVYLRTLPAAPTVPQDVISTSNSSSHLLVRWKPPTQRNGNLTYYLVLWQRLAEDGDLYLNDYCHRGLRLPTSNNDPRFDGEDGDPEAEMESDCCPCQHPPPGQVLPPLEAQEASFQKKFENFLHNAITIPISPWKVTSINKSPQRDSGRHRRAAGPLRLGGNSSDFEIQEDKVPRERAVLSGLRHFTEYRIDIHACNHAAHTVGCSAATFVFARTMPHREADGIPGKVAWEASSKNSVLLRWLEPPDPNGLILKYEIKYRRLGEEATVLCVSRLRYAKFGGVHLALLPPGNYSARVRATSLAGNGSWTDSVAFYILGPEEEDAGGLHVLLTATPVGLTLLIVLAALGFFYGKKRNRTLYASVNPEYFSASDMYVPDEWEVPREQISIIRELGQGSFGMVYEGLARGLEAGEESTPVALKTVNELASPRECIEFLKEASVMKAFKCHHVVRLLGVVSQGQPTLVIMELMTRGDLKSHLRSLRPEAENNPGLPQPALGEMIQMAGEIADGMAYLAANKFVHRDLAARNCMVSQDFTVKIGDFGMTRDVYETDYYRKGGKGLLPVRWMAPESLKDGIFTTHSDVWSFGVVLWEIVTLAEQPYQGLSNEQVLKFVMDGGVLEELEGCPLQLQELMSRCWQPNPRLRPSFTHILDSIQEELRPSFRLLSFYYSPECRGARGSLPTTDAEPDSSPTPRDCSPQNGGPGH
smiles,measurement,setting,value
"FC(F)(F)c1c(Cl)ccc(-n2ccnn2)c1Cl [8l, 1-(2,4-Dichloro-3-(trifluoromethyl)phenyl)-1H-1,2,3-triazole]",inhibition at 10 µM,[1],2%
same,inhibition at 10 µM,[2],-3%
same,inhibition at 10 µM,[3],5%
same,inhibition at 10 µM,[4],17%
same,inhibition at 10 µM,[5],1%
same,inhibition at 10 µM,[6],2%
same,inhibition at 10 µM,[7],0%
same,inhibition at 10 µM,[8],5%
same,inhibition at 10 µM,[9],3%
same,inhibition at 10 µM,[10],-2%
same,inhibition at 10 µM,[11],0%
same,inhibition at 10 µM,[12],17%
same,inhibition at 10 µM,[13],3%
same,inhibition at 10 µM,[14],-1%
same,inhibition at 10 µM,[15],23%
same,inhibition at 10 µM,[16],0%
same,inhibition at 10 µM,[17],33%
same,inhibition at 10 µM,[18],7%
same,inhibition at 10 µM,[19],11%
same,inhibition at 10 µM,[20],1%
same,inhibition at 10 µM,[21],6%
same,inhibition at 10 µM,[22],15%
same,inhibition at 10 µM,[23],8%
same,inhibition at 10 µM,[24],-3%
same,inhibition at 10 µM,[25],8%
same,inhibition at 10 µM,[26],7%
same,inhibition at 10 µM,[27],20%
same,inhibition at 10 µM,[28],13%
same,inhibition at 10 µM,[29],0%
same,inhibition at 10 µM,[30],0%
same,inhibition at 10 µM,[31],14%
same,inhibition at 10 µM,[32],-1%
same,inhibition at 10 µM,[33],13%
same,inhibition at 10 µM,[34],0%
